Laboratory results: patent US20200325178A1, “PEPTIDE NUCLEIC ACID MOLECULES FOR TREATMENT OF GRAM POSITIVE BACTERIAL INFECTION” (priority 2017, published 2020)

Legend:
[1] = system: S. aureus (ATCC BAA-1556); experiment: Murine thigh infection model; format: in vivo; settings: for Mean Log 10 CFU/Thigh / Mean Log 10 Change vs. 1 hr / Mean Log 10 Change vs. 24 hr (vehicle): neutropenic CD-1 mice, 10 mg/kg, 0.2 ml IV, 24 hrs
Method: Female 5-6 week old CD-1 (18-22 gm) were used in this study. Mice were quarantined for 48 hours before use and housed in groups of 5 with free access to food and water during the study.
The animals were made neutropenic by administration of cyclophosphamide on Days −4 and −1. On Days −4 150 mg/kg of cyclohsphamide administered by intraperitoneal route and 100 mg/kg was administered on Days −1. Days listed are referenced from the date of infection (study day-Day 0).
On Day 0, animals were inoculated intramuscularly (0.1 ml/thigh) with ˜1×10^5 CFU/mouse of S. aureus (ATCC BAA-1556) into right thigh. […] Group-3 of mice were administered with vancomycin at 25 mg/kg via subcutaneous route. Group-4 of mice administered with buffer and group-5 used as the inoculation control.
Mice were euthanized by CO2 inhalation and thighs were removed, and placed in 2 ml of sterile PBS, homogenized, serially diluted and plated to determine the CFU counts. Plates were incubated 18-24 hours and CFUs were counted.
Colony were counted and the number of colonies is converted to CFU/thigh by multiplying the number of colonies by the volume of the thigh homogenate spotted and the dilution at which the colonies were counted (5-50 colonies/spot). All count data were transformed into logo CFU/thigh for calculation of means and standard deviations.

[2] = Single ascending intravenous dose tolerability (MTD) in mice; format: in vivo; settings: 10 mg/kg single intravenous bolus dose
Method: Single ascending intravenous (IV) dose study was performed to determine tolerability of the drug in mice.
Initially, Compound I-HCl and Compound IV-HCl were administered with a 10 mg/kg intravenous bolus dose using a 10 mL/kg dose volume (0.2 mL) and observed the effects before proceeding to the next higher dose. […] However, higher concentration (>15 mg/kg) had shown adverse effect and death in mice within 30 mins of administration of the drug.

S. aureus MRSA strains = experiment: Bioscreen-C dose response growth curve of MRSA over 24 hours; format: cell-based, Staphylococcus aureus; settings: HCl salts, doses from 100 μg downwards, 10 mM sodium bicarbonate buffer pH-7.4, OD 420-580 nm
Method: (§1) Bioscreen-C instrument was used to detect the MIC and MBC of PNA-CPP derivatives against S. aureus MRSA strains. Different concentration of PNA-CPP derivatives were prepared in 10 mM of sodium bicarbonate buffer pH-7.4 and added to ˜5.0 Log 10 CFUs in a Honey comb Bioscreen-C plate.
Compound I-V were assayed against MRSA. FIG. 6-10 show a dose response growth curve of MRSA in presence of increasing concentrations of Compound I-HCl (FIG. 6), Compound II-HCl (FIG. 7), Compound III-HCl (FIG. 8), Compound IV-HCl (FIG. 9), and Compound V-HCl (FIG. 10), determined in a Bioscreen-C spectrophotometer.

MRSA = experiment: In vitro assay of emergence of resistance, MRSA, 8 days; format: cell-based, S. aureus; settings: 6.25 μg (twice MBC) in one ml Mueller Hinton broth, 37° C., through Day 8
Method: To determine the development of resistance in MRSA and MSSA strains against Compound I-HCl and Compound IV-HCl, an in vitro assay was performed. Twice the amount of MBC of Compound I-HCl (6.25 μg) and Compound IV-HCl (6.25 μg) were mixed with ˜5.0 log 10 CFUs in one ml of Mueller Hinton broth and incubated for 8 days at 37° C. Eight tubes of culture were used for each drug and bacterial strains. At 24 hours of interval, culture tubes were centrifuged and spent media were replaced with fresh media in presence of Compound I-HCl and Compound IV-HCl and further incubated to observe the growth of S. aureus strains. At 24 hours interval, one set of culture tube exposed to drugs were selected and a fraction of the culture used to plate on agar plates to observe the reduction of CFU counts as compared to untreated control. The rest of the culture samples were allowed to grow without any drug for additional 24 hours to observe the growth of S. aureus strains. One set of culture tubes without drug was used as the positive control.

[3] = system: MRSA clinical isolates and ATCC strains; experiment: MIC and MBC against MRSA clinical isolates and ATCC strains; format: cell-based, Staphylococcus aureus; parameters: unit not given here
Method: as §1
After the growth curve assays, the number of colony forming units (CFU) were counted to determine the MIC and MBC of each PNA-CPP derivative against MRSA.
Minimum inhibitory concentration (MIC) analyses were performed as described in Clinical and Laboratory Standards Institute, Methods for Dilution Antimicrobial Susceptibility Tests for Bacteria that Grow Aerobically, 7th ed.; Approved Standard M7-A7; CLSI: Wayne, Pa., USA, 2006; volume 26, No. 2. […] MIC was determined as the lowest concentration of agent that inhibits bacterial growth detected at A420-580 nm.

Compound I: PNA-CPP conjugate: PNA cgt cat acg cgg tcc (SEQ ID NO: 51), AEEA linker, CPP BXRXRRXRRXRRXR; FIG. 1 (CGTCATACGCGGTCC; all peptide nucleic acid (PNA); cell-penetrating peptide attached via AEEA linker, further chemistry not fully specified)
reduction in CFU counts compared to Vancomycin positive control treatment ([1]; administered at 1 and 13 hours or at 1, 9, and 17 hours): comparable or improved reduction in CFU counts | Mean Log 10 CFU/Thigh ([1]; +1 & 13 hrs): 4.46 Log 10 CFU/Thigh | Mean Log 10 Change vs. 1 hr ([1]; +1 & 13 hrs): −1.16 Log 10 | Mean Log 10 Change vs. 24 hr (vehicle) ([1]; +1 & 13 hrs): −4.07 Log 10 | Mean Log 10 CFU/Thigh ([1]; +1, +9, & +17 hrs): 3.46 Log 10 CFU/Thigh | Mean Log 10 Change vs. 1 hr ([1]; +1, +9, & +17 hrs): −2.16 Log 10 | Mean Log 10 Change vs. 24 hr (vehicle) ([1]; +1, +9, & +17 hrs): −5.07 Log 10 | tolerability in mice [2]: well tolerated | lowest dose at which no MRSA growth was observed (growth curve) (S. aureus MRSA strains): 3.13 µg | MRSA CFU counts and emergence of resistant strains (MRSA): reduced MRSA CFUs without emergence of resistant strains | MBC ([3]; isolate MRSA#1): 1.56 | MIC ([3]; isolate MRSA#1): 0.78 | MBC ([3]; isolate MRSA#3): 3.25 | MIC ([3]; isolate MRSA#3): 1.56 | MBC ([3]; isolate MRSA#6): 1.56/1.56 | MIC ([3]; isolate MRSA#6): 1.56/1.56 | MBC ([3]; isolate MRSA#15): 3.25/3.25 | MIC ([3]; isolate MRSA#15): 3.25/3.25 | MBC ([3]; isolate MRSA#28): 3.25/3.25 | MIC ([3]; isolate MRSA#28): 3.25/3.25 | MBC ([3]; isolate MRSA#31): 3.25/3.25 | MIC ([3]; isolate MRSA#31): 3.25/3.25 | MBC ([3]; isolate MRSA#37): 3.25 | MIC ([3]; isolate MRSA#37): 1.56 | MBC ([3]; isolate MRSA#39): 3.25/3.25 | MIC ([3]; isolate MRSA#39): 3.25/3.25 | MBC ([3]; isolate MRSA#42): 1.56/1.56 | MIC ([3]; isolate MRSA#42): 1.56/1.56 | MBC ([3]; isolate MRSA#43): 3.25 | MIC ([3]; isolate MRSA#43): 1.56 | MBC ([3]; strain USA 300): 3.25 | MIC ([3]; strain USA 300): 1.56
